The values below come from article PMC6340882, “Targeting protein kinase CK2 and CDK4/6 pathways with a multi-kinase inhibitor ON108110 suppresses pro-survival signaling and growth in mantle cell lymphoma and T-acute lymphoblastic leukemia” (Oncotarget, 2018).

One assay concerns the target CK2α2 (Homo sapiens, UniProt P19784). The assay can be described thus: Kinase panel profiling (Reaction Biology Corp). Format: biochemical. Conditions: CK2α2, kinase inhibition profile. How it is done: (§1) Initial testing of ON108110 against a panel of 285 functional kinases was performed by Reaction Biology Corp (Malvern, PA). Recombinant CDK4/CYCLIN D1 or CK2α1 were mixed with their respective synthetic peptide substrates (10ng) and incubated with DMSO or increasing concentrations of ON108110 in 20μl kinase buffer [50mM Tris-HCl (pH 7.5), 10mM MgCl2, 1mM EGTA, 2mM DTT and 0.01% NP-40] for 30 min. at room temperature. Kinase reactions were carried out for 20 min at 30°C in the presence of 5μl of substrate-ATP mixture (1μg RB, 20μM ATP, 20μCi γ-^32P-ATP). The reactions were incubated at 30°C for 20 minutes, terminated by addition of 0.5M O-phosphoric acid and 10μl of the reaction mixture was spotted on P-30 Filtermat membranes (Wallac #1450-523). The filtermat was air-dried, blocked with methanol for 2 minutes followed by three washes with 75mM phosphoric acid. The filtermat was then air-dried and analyzed using a phosphoimager. Densitometric values were plotted as a function of log drug concentration using Prism 4 GraphPad software and the IC50 values determined by plotting sigmoidal non-linear regression curves with variable slope (n=3).

The target of another assay is CDK6/CyclinD1 (Homo sapiens, UniProt Q00534). The assay can be described thus: Kinase panel profiling (Reaction Biology Corp). Conditions: CDK6/CyclinD1, kinase inhibition profile. The class given is biochemical. How it is done: as §1
The target in the next assay is CDK6/CyclinD3 (Homo sapiens, UniProt Q00534). The assay is described as follows: Kinase panel profiling (Reaction Biology Corp). The class given is biochemical. Conditions: CDK6/CyclinD3, kinase inhibition profile. The method, then:
as §1

For another assay, the target named is CDK4/CyclinD3 (Homo sapiens, UniProt P11802). The assay is described as follows: Kinase panel profiling (Reaction Biology Corp). The class given is biochemical. The conditions noted are these: CDK4/CyclinD3, kinase inhibition profile. How it is done: as §1
Another assay addresses PIM3 (Homo sapiens, UniProt Q86V86). The assay is described as follows: Kinase panel profiling (Reaction Biology Corp). Format: biochemical. The conditions noted are these: PIM3, kinase inhibition profile. How it is done:
as §1

Another assay has as its target CDK5/P25 (Homo sapiens, UniProt Q00535). The assay can be described thus: Kinase panel profiling (Reaction Biology Corp). The conditions noted are these: CDK5/P25, kinase inhibition profile. Format: biochemical. How it is done:
as §1

A further assay deals with MCF-7. The assay is described as follows: Growth inhibition (GI50), Cell Titer Blue. The class given is cell-based. The conditions noted are these: Homo sapiens, MCF7; MCF-7, Breast Cancer; 96 hrs post-treatment. The method, then: (§2) Cell lines were cultured in RPMI-1640 medium (Thermo Scientific) supplemented with 10% heat inactivated FBS and penicillin-streptomycin at 37°C under humidified conditions and 5% CO2. All cell lines tested negative for mycoplasma. […] Compounds were added 24 hrs post-plating at the indicated concentrations. Cell counts were determined from duplicate wells 96 hrs post-treatment using the Cell Titer Blue assay in conjunction with the GloMax plate reader (Promega).

The test system of the next assay is AsPc1. The assay is described as follows: Growth inhibition (GI50), Cell Titer Blue. The class given is cell-based. The conditions noted are these: Homo sapiens; AsPc1, Pancreatic Cancer; 96 hrs post-treatment. How it is done:
as §2
For orientation: The colour change of resazurin is a common sign of viable cells or microbes.

The subject of the next assay is Z138C. The assay can be described thus: Growth inhibition (GI50), Cell Titer Blue. Format: cell-based. The conditions noted are these: Homo sapiens, Mantle Cell Lymphoma, 96 hrs post-treatment. The method, then:
as §2

In the next assay the test system is HBL2. The assay is described as follows: Growth inhibition (GI50), Cell Titer Blue. The conditions noted are these: Homo sapiens; HBL2, Mantle Cell Lymphoma; 96 hrs post-treatment. The class given is cell-based. How it is done: as §2
The subject of a further assay is LnCap. The assay can be described thus: Growth inhibition (GI50), Cell Titer Blue. The class given is cell-based. Conditions: Homo sapiens, Prostate Cancer, 96 hrs post-treatment. How it is done: as §2
In a further assay the test system is HEL. The assay is described as follows: Growth inhibition (GI50), Cell Titer Blue. The class given is cell-based. The conditions noted are these: Homo sapiens, Erythroleukemia, 96 hrs post-treatment. The method, then:
as §2

A further assay concerns BT-20. The assay can be described thus: Growth inhibition (GI50), Cell Titer Blue. Format: cell-based. The conditions noted are these: Homo sapiens; BT-20, Breast Cancer; 96 hrs post-treatment. The method, then: as §2
The test system of the next assay is RS-4-11. The assay can be described thus: Growth inhibition (GI50), Cell Titer Blue. The class given is cell-based. The conditions noted are these: Homo sapiens, RS4-11; RS-4-11, Acute Lymphoblastic Leukemia; 96 hrs post-treatment. How it is done: as §2
The next assay concerns GRANTA-519. The assay can be described thus: Growth inhibition (GI50), Cell Titer Blue. Format: cell-based. The conditions noted are these: Homo sapiens; GRANTA-519, Mantle Cell Lymphoma; 96 hrs post-treatment. The method, then:
as §2

For the next assay, the system named is K562. The assay is described as follows: Growth inhibition (GI50), Cell Titer Blue. Format: cell-based. The conditions noted are these: Homo sapiens; K562, Chronic Myeloid Leukemia; 96 hrs post-treatment. How it is done: as §2
In a further assay the test system is 22Rv1. The assay can be described thus: Growth inhibition (GI50), Cell Titer Blue. The class given is cell-based. Conditions: Homo sapiens; 22Rv1, Prostate Cancer; 96 hrs post-treatment. The method, then: as §2
Another assay concerns JVM2. The assay is described as follows: Growth inhibition (GI50), Cell Titer Blue. Format: cell-based. Conditions: Homo sapiens, JVM-2; JVM2, Mantle Cell Lymphoma; 96 hrs post-treatment. The method, then:
as §2

The subject of the next assay is MOLT-4. The assay is described as follows: Growth inhibition (GI50), Cell Titer Blue. The class given is cell-based. The conditions noted are these: Homo sapiens; MOLT-4, Acute Lymphoblastic Leukemia; 96 hrs post-treatment. The method, then:
as §2

For the next assay, the system named is CEM. The assay can be described thus: Growth inhibition (GI50), Cell Titer Blue. The class given is cell-based. The conditions noted are these: Homo sapiens, CCRF-CEM, Acute Lymphoblastic Leukemia, 96 hrs post-treatment. The method, then: as §2
A further assay concerns MiaPaca-2. The assay is described as follows: Growth inhibition (GI50), Cell Titer Blue. Format: cell-based. Conditions: Homo sapiens, MIA PaCa-2; MiaPaca-2, Pancreatic Cancer; 96 hrs post-treatment. The method, then: as §2
For assay [1], the system named is MCL and ALL cell lines as well as normal PBMCs. The assay can be described thus: GI50 of MCL and ALL cell lines compared to normal PBMCs (Figure 4C). Format: cell-based, human. Conditions: MCL and T-ALL cell lines vs PBMCs in vitro, 72 hours post-treatment. How it is done:
Figure 4 CK2 and CDK4 expression in cell lines and primary samples (A) mRNA levels of CK2 subunits in a panel of MCL and T-ALL leukemic cell lines and normal human PBMCs. (B) Protein levels of CK2 subunits and pRB^Ser807/811 in a panel of MCL and T-ALL leukemic cell lines and normal human PBMCs. (C) Calculation of GI50 values against of ON108110 against MCL and ALL cell lines as well as normal PBMCs 72 hours post-treatment.
Cell lines were cultured in RPMI-1640 medium (Thermo Scientific) supplemented with 10% heat inactivated FBS and penicillin-streptomycin at 37°C under humidified conditions and 5% CO2. All cell lines tested negative for mycoplasma. […] Compounds were added 24 hrs post-plating at the indicated concentrations. […]

For the next assay, the target named is CDK6 (Homo sapiens, UniProt Q00534). The assay is described as follows: In vitro kinase assay with recombinant protein (32P-ATP, filtermat). The class given is biochemical. The conditions noted are these: recombinant CDK6, independent in vitro kinase assay, 20μM ATP. The method, then: Figure 1 ON108110 is a multi-kinase inhibitor (A) Structure of the ON108XXO benzo thiazolidinnes chemotype. (B) Structure of ON108110. (C) Calculation of IC50 values against CDK4 and CDK6 and (D) CK2α1 and CK2α2 by ON108110. Recombinant proteins were incubated with the indicated concentrations of ON108110 and subjected to in vitro kinase assays as described in the materials and methods section. Values obtained were plotted as a function of log drug concentration. IC50 values were determined by performing sigmoidal non-linear regression with a variable slope.
as §1, with “The reactions were incubated at 30°C for 20 minutes, terminated by addition of 0.5M O-phosphoric acid and 10μl of the reaction mixture was spotted on P-30 Filtermat membranes (Wallac #1450-523). The filtermat was air-dried, blocked with methanol for 2 minutes followed by three washes with 75mM phosphoric acid.” left out

One may read the IC50 as the point on the concentration scale where inhibition reaches its midpoint. Broadly, the GI50 is the concentration giving 50% growth inhibition.

Chain of CK2α2 (P19784 whole entry): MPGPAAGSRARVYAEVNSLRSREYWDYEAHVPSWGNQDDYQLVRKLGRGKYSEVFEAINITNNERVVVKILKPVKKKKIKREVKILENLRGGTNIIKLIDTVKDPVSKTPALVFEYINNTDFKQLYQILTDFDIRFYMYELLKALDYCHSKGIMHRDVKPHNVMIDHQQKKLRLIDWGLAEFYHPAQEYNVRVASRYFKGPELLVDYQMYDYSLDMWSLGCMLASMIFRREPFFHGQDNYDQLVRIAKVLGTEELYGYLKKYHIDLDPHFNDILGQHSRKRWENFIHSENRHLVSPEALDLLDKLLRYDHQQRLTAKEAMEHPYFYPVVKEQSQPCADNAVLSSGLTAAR
Chain of CDK4/CyclinD3 (P11802 whole entry): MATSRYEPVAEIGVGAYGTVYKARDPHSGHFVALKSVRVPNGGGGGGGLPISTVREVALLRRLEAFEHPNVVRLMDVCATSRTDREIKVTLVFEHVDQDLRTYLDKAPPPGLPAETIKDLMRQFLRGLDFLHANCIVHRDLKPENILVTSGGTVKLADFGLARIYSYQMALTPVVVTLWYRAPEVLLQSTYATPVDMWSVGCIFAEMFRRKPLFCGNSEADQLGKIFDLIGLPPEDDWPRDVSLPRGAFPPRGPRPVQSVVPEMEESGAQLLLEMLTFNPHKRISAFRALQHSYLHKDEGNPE
Chain of CDK4/CyclinD3 (P30281 whole entry partner): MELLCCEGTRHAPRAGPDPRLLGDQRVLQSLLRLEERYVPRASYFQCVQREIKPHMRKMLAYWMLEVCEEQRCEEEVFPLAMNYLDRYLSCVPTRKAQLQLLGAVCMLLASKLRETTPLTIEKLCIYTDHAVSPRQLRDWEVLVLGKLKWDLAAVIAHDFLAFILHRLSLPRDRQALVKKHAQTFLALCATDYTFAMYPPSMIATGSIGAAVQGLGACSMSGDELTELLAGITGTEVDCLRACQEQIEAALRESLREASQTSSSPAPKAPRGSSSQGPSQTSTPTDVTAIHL
Chain of CDK6 (Q00534 whole entry): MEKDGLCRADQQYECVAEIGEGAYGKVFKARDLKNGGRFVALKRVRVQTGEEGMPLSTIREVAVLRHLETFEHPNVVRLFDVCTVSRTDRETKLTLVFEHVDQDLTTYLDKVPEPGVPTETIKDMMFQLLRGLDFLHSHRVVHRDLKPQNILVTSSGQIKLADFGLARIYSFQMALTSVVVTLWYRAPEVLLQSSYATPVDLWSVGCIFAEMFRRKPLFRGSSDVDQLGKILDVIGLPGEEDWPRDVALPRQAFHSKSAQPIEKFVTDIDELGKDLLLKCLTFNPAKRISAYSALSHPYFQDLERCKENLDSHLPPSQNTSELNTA
Chain of CDK6 (P24385 whole entry partner): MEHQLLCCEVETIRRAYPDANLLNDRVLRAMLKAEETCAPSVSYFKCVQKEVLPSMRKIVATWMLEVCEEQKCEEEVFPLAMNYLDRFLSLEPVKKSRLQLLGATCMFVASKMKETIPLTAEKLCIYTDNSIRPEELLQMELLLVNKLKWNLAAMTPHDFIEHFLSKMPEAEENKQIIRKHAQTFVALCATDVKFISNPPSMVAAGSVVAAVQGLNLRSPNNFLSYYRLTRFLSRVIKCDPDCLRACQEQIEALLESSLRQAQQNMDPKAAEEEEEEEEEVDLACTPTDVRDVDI
Chain of CDK6/CyclinD3 (Q00534 whole entry): as the sequence (Q00534 whole entry) above
Chain of CDK6/CyclinD3 (P30281 whole entry partner): as the sequence (P30281 whole entry partner) above
Chain of CDK6/CyclinD1 (Q00534 whole entry): as the sequence (Q00534 whole entry) above
Chain of CDK6/CyclinD1 (P24385 whole entry partner): as the sequence (P24385 whole entry partner) above
Chain of CDK5/P25 (Q00535 whole entry): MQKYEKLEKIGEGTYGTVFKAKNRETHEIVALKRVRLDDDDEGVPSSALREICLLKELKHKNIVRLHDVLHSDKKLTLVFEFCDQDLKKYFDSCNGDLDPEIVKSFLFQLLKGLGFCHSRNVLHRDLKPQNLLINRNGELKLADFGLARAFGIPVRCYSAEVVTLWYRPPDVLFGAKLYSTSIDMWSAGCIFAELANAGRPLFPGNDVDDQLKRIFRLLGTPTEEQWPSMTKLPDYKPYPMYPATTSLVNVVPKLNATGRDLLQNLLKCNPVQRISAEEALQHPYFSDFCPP
Chain of CDK5/P25 (Q15078 99-307 partner limits assumed): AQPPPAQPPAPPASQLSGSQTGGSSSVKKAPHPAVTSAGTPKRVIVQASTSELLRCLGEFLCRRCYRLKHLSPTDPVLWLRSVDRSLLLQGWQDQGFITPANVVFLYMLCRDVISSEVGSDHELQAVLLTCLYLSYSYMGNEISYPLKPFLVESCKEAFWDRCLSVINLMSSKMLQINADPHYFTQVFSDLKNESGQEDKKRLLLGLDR

`CC(=O)Oc1ccc(/C=C2\Sc3ccc(F)cc3NC2=O)cc1[N+](=O)[O-]` [ON108110]: the IC50 was found to be 2 nM on CK2α2; 2 nM at CDK6/CyclinD1; 24 nM at CDK6/CyclinD3; 15 nM against CDK4/CyclinD3; 2 nM against PIM3; 7 nM on CDK5/P25. In addition, the IC50 at CDK6 came to 10 nM. The GI50 was 800 nM in the assay with MCF-7; 2800 nM with AsPc1; 600 nM with Z138C; 250 nM in the assay with HBL2; more than 5000 nM with LnCap; 900 nM in the assay on HEL. Moreover, the GI50 in the assay on BT-20 is 2500 nM; in the assay on RS-4-11, 240 nM; in the assay on GRANTA-519, 150 nM; with K562, 2200 nM; in the assay with 22Rv1 it was more than 5000 nM; in the assay on JVM2, 300 nM. Also, the GI50 with MOLT-4 worked out at 500 nM; with CEM it was 180 nM; with MiaPaca-2 it was 2600 nM. The “fold more sensitive compared to PBMCs (IC50 values)” value in assay [1] is more than 100 fold.
